# Results from patent US20220370543A1, “METHODS OF TREATMENT FOR MODIFYING HEMODYNAMICS” (EBI ANTI SEPSIS B.V., priority 2019, published 2022).
# Entries after “also recorded” stand apart in the source; their conditions may differ. Read-outs that look alike come from different tables or passages of the source. Peptide text beside a SMILES is read from it.
# Key:
# [1] = Solubility measurements / aggregation points of AQGV salts
# Description: At first attempts were made to mix a solution of the free base and an acid in order to achieve a concentrated DMSO solution of the salt and subsequently dilute this in water in order to determine solubility. […] It was decided to determine the solubility of the salts required by dilution of known amount of salts (not soluble) till a clear solution is obtained.
# [2] = EASI phase II study: pharmacokinetics; format: in vivo; conditions: human; for Cmax: in vivo, iv, 90 mg/kg, Phase II trial, 90 mg/kg/hour i.v. infusion
# Experimental: (§1) Intravenous infusion of EA-230, 90 mg/kg/hour, or placebo, was initiated at the moment of first surgical incision using an automated infusion pump. Infusion rate was set at 250 ml/hour, and infusion was continued until cessation of the CPB, or after 4 hours of continuous infusion, whichever comes first.
# [3] = system: patients undergoing on-pump coronary artery bypass grafting (CABG); experiment: EASI phase II study: safety, adverse events; format: in vivo, human
# Experimental: During cardiac surgery, 180 patients received (double-blinded, placebo-controlled, randomized) 90 mg/kg/hour EA-230 or placebo. The primary endpoint was safety. Efficacy was assessed by immunomodulation (plasma interleukin (IL)-6 concentrations), renal function (glomerular filtration rate using iohexol and creatinine [GFRiohexol, eGFRMDRD] and the incidence of acute kidney injury [AKI, RIFLE criteria]), cardiovascular effects (fluid balance, vasoactive agents) and general outcome (length-of-stay).
# A prospective, randomized, double-blind, placebo-controlled study was performed in which 180 elective patients, undergoing on-pump coronary artery bypass grafting, with or without concomitant valve surgery, were enrolled. Patients were randomized in a 1:1 ratio and received either EA-230, 90 mg/kg/hour, or a placebo. These were infused at the start of the surgical procedure until the end of the use of the cardiopulmonary bypass. The main focus in this first-in-patient study was on safety and tolerability of EA-230. The primary efficacy endpoint was the modulation of the inflammatory response by EA-230 quantified as the change in interleukin-6 plasma concentrations after surgery. A key secondary endpoint was the effect of EA-230 on renal function.
# The present study was a single-center, prospective, double-blind, placebo-controlled, randomized, single-dose phase II study. It has an adaptive design to evaluate the safety and immunomodulatory effects of EA-230 in patients undergoing on-pump cardiac surgery for coronary artery bypass grafting (CABG) with or without concomitant valve surgery. 180 eligible patients were included and were randomized to receive either active or placebo treatment in a 1:1 ratio. This was a first-in-patient safety and tolerability study, of which the primary efficacy objective was to assess the immunomodulatory effects of EA-230. The key-secondary efficacy endpoint was the effect of EA-230 on renal function. This study was described in accordance with the Standard Protocol Items: Recommendations for Interventional Trial (SPIRIT) guidelines, and registered at clinicaltrials.gov under number NCT03145220.
# as §1
# All AEs were judged by the investigators with regard to severity (“mild, moderate, or severe”) according to Common Terminology Criteria for Adverse Events guidelines 4.030 and their perceived relation to the study drug (“definitely, probably, possibly, or unrelated/unlikely to be related”). SAEs or SUSARs include death, life-threatening disease, persistent and/or significant disability and/or incapacity, and hospitalization and/or prolongation of inpatient hospitalization.
# [4] = 90 mg/kg/hour i.v. during CABG surgery
molecule,measurement,setting,value
adenosine,Clear solution on adding 0.9% NaCl,"[1]; 1 or 0.5 mmol salt, small amounts of 0.9% NaCl added",no clear solution could be obtained
"CC(C)[C@H](NC(=O)CNC(=O)[C@H](CCC(N)=O)NC(=O)[C@H](C)N)C(=O)O [EA-230, AQGV] (H-AQGV-OH)",Time to clearance from the circulation when infusion is terminated,[2],5 to 10 min
same,Cmax,"[2]; read-out: Arterial Cmax, range",12500 to 57500 ng/mL
same,Cmax,[2]; read-out: Mean arterial Cmax,30500 ng/mL
same,Cmax,[2]; read-out: Mean venous Cmax,68400 ng/mL
same,Cmax,"[2]; read-out: Venous Cmax, range",19600 to 113000 ng/mL
same,Adverse events compared with placebo,[3]; [4],less (serious) adverse events and less mayor clinical adverse events
same,Patients suffering from (adverse) fluid retention compared with placebo,[3]; [4],significantly less patients suffering from fluid retention; also recorded: significant reduction of adverse fluid retention
same,AE of mild intensity: (%) of patients,"[3]; EASI-study, N = 91",(83.5) %
same,AE of mild intensity: e (number of events),"[3]; EASI-study, N = 91",188
same,AE of mild intensity: n (number of patients experiencing the event),"[3]; EASI-study, N = 91",76
same,AE of moderate intensity: (%) of patients,"[3]; EASI-study, N = 91",(24.2) %
same,AE of moderate intensity: e (number of events),"[3]; EASI-study, N = 91",23
same,AE of moderate intensity: n (number of patients experiencing the event),"[3]; EASI-study, N = 91",22
same,AE of severe intensity: (%) of patients,"[3]; EASI-study, N = 91",(5.5) %
same,AE of severe intensity: e (number of events),"[3]; EASI-study, N = 91",6
same,AE of severe intensity: n (number of patients experiencing the event),"[3]; EASI-study, N = 91",5
same,Anemia: (%) of patients,"[3]; EASI-study, N = 91",(5.5) %
same,Anemia: e (number of events),"[3]; EASI-study, N = 91",5
same,Anemia: n (number of patients experiencing the event),"[3]; EASI-study, N = 91",5
same,Any AE: (%) of patients,"[3]; EASI-study, N = 91",(85.7) %
same,Any AE: n (number of patients experiencing the event),"[3]; EASI-study, N = 91",78
same,Any SAE: (%) of patients,"[3]; EASI-study, N = 91",(13.2) %
same,Any SAE: e (number of events),"[3]; EASI-study, N = 91",23
same,Any SAE: n (number of patients experiencing the event),"[3]; EASI-study, N = 91",12
same,Any SUSAR: (%) of patients,"[3]; EASI-study, N = 91",(0) %
same,Any SUSAR: e (number of events),"[3]; EASI-study, N = 91",0
same,Any SUSAR: n (number of patients experiencing the event),"[3]; EASI-study, N = 91",0
same,"Blood and lymphatic system disorders, Overall: (%) of patients","[3]; EASI-study, N = 91",(5.5) %
same,"Blood and lymphatic system disorders, Overall: e (number of events)","[3]; EASI-study, N = 91",6
same,"Blood and lymphatic system disorders, Overall: n (number of patients experiencing the event)","[3]; EASI-study, N = 91",5
same,Delirium: (%) of patients,"[3]; EASI-study, N = 91",(5.5) %
same,Delirium: e (number of events),"[3]; EASI-study, N = 91",5
same,Delirium: n (number of patients experiencing the event),"[3]; EASI-study, N = 91",5
same,Fluid retention: (%) of patients,"[3]; EASI-study, N = 91",(2.2) %
same,Fluid retention: e (number of events),"[3]; EASI-study, N = 91",2
same,"Gastrointestinal disorders, Overall: (%) of patients","[3]; EASI-study, N = 91",(23.1) %
same,"Gastrointestinal disorders, Overall: e (number of events)","[3]; EASI-study, N = 91",27
same,"Gastrointestinal disorders, Overall: n (number of patients experiencing the event)","[3]; EASI-study, N = 91",21
same,Hemorrhagic diathesis: (%) of patients,"[3]; EASI-study, N = 91",(1.1) %
same,Hemorrhagic diathesis: e (number of events),"[3]; EASI-study, N = 91",1
same,Hemorrhagic diathesis: n (number of patients experiencing the event),"[3]; EASI-study, N = 91",1
same,"Infections and infestations, Overall: (%) of patients","[3]; EASI-study, N = 91",(14.3) %
same,"Infections and infestations, Overall: e (number of events)","[3]; EASI-study, N = 91",15
same,"Infections and infestations, Overall: n (number of patients experiencing the event)","[3]; EASI-study, N = 91",13
same,"Metabolism and nutrition disorders, Overall: (%) of patients","[3]; EASI-study, N = 91",(11) %
same,"Metabolism and nutrition disorders, Overall: e (number of events)","[3]; EASI-study, N = 91",10
same,"Metabolism and nutrition disorders, Overall: n (number of patients experiencing the event)","[3]; EASI-study, N = 91",10
same,Nausea: (%) of patients,"[3]; EASI-study, N = 91",(16.5) %
same,Nausea: e (number of events),"[3]; EASI-study, N = 91",15
same,Nausea: n (number of patients experiencing the event),"[3]; EASI-study, N = 91",15
same,"Psychiatric disorders, Overall: (%) of patients","[3]; EASI-study, N = 91",(9.9) %
same,"Psychiatric disorders, Overall: e (number of events)","[3]; EASI-study, N = 91",9
same,"Psychiatric disorders, Overall: n (number of patients experiencing the event)","[3]; EASI-study, N = 91",9
same,"Renal and urinary disorders, Overall: (%) of patients","[3]; EASI-study, N = 91",(4.4) %
same,"Renal and urinary disorders, Overall: e (number of events)","[3]; EASI-study, N = 91",4
same,"Renal and urinary disorders, Overall: n (number of patients experiencing the event)","[3]; EASI-study, N = 91",4
same,Safety and tolerability,"[3]; continuous infusion 90 mg/kg/hour up to 4 hours, elective CABG surgery",safe and No safety concerns emerged and well tolerated and showed an excellent safety profile
Nc1ncnc2c1ncn2[C@@H]1O[C@H](COP(=O)(O)O)[C@@H](O)[C@H]1O [adenosine-monophosphate],Clear solution on adding 0.9% NaCl,[1],no clear solution could be obtained
O=C(O)/C=C\C(=O)O [maleic acid],Solubility compared to AQGV-Ac,[1]; 0.9% NaCl,lower solubility
CC(C)[C@H](NC(=O)CNC(=O)[C@H](CCC(N)=O)NC(=O)[C@H](C)N)C(=O)O [AQGV-citrate] (H-AQGV-OH),Behaviour of highly concentrated solution,"[1]; 0.9% NaCl, listed as Citric acid",does not crystallize or aggregate but tend to form a highly viscous solution
same,Behaviour of highly concentrated solution,"[1]; 0.9% NaCl, listed as citric acid",remains clear but got very thick/viscous
same,Solubility in DMSO,[1]; free base mixed with acid in DMSO,did not dissolve in DMSO at all
same,Total amount dissolved (clear solution),[1]; in 0.5 mL 0.9% NaCl,2.75 mmol
